This assay addresses T1, Alpha-1-antitrypsin [E366K] (Homo sapiens, UniProt P01009, E366K).
T1 construct: gene SERPINA1
The assay is described as follows: Biochemical Assay (Z-AAT Elastase Activity Assay). On the procedure:
Assay Protocol: Pre-Incubation of Z-AAT with Compounds1. 7.5 μL of Z-AAT (20 nM) was incubated with compounds 1-227 in a GCA plate for 1 hour at room temperature. Addition of hNE1. 7.5 ul of HNE solution (3 nM in PBS+0.01% BRIJ35) added into GCA plate2. Incubate plate for 30 minutes to allow Z-AAT/HNE suicide complex formation. Addition of Substrate and Read Plate on PE Envision1. 7.5 μL of substrate (300 μM solution of elastase substrate (ES V) in PBS+0.01% BRIJ35) dispensed per well into GCA plate2. Immediately read on Envision.

Bounds are passed on as bounds.

T1 sequence (P01009 25-418 E366K limits assumed): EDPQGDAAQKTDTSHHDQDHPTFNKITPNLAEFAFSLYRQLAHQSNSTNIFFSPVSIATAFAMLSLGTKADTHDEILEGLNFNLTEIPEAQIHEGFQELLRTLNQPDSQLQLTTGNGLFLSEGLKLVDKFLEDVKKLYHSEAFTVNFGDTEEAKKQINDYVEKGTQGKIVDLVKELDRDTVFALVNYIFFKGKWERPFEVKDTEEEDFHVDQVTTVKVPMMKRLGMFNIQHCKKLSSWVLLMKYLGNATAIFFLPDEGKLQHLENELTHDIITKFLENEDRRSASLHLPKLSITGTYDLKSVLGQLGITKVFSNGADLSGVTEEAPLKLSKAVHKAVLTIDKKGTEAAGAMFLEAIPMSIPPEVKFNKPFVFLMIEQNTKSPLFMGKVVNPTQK

For orientation: IC50 means the concentration at which inhibition is half-maximal. High values mean a need for much substance, low ones inhibition by little substance. As for `Cc1cc(-n2c(C(C)C)c(-c3ccc(C(=O)O)cc3)c3cc(O)ccc32)ccc1F` [US20230339915, Compound 167], the IC50 was less than 2 µM.
To `Cc1cc(-n2c(C(C)C)c(-c3ccc(C(=O)O)cc3C)c3cc(O)ccc32)ccc1F` [US20230339915, Compound 170] belongs less than 2 µM; to `Cc1cc(-n2c(C(C)C)c([C@H]3C[C@@H]3C(=O)O)c3cc(O)c(F)cc32)ccc1F` [US20230339915, Compound 129], greater than 5 µM; to `Cc1cc(-n2c(C(C)C)c(C3CC3(C)C(=O)O)c3cc(O)ccc32)ccc1F` (centres undefined) [US20230339915, Compound 130], greater than 5 µM.

(Values after BindingDB's records for patent US20230339915 (Vertex Pharmaceuticals, 2023).)
